Test results from publication PMC11649784, “Re-design and evaluation of diclofenac-based carborane-substituted prodrugs and their anti-cancer potential” (Scientific Reports, 2024).

Legend:
MC38 cells [1] = assay: Crystal violet (CV) viability assay, MC38; format: cell-based, murine; conditions: 72 h
Method: (§1) In a preliminary test, the stability of all compounds dissolved in the cell medium (c = 100 μM, T = [drawing 47] ) for 72 h was validated by HPLC (see Supporting Information). Cell lines were incubated with the respective compounds in a concentration range of 1.56–100 μM for 72 h, and cell viability was measured using 3-(4,5-dimethylthiazol-2-yl)-2,5-diphenyltetrazolium bromide (MTT) and crystal violet (CV) assays. […] As MTT tests gave inconsistent results, possibly due to interference of the compound with mitochondrial respiration, for the further evaluation only the CV results are considered[97],[98].
(§2) The biological study was performed on a murine colon adenocarcinoma cell line (MC38), two human colorectal carcinoma cell lines (HCT116 and HT29), and a human fetal lung fibroblast cell line (MRC-5). All cell lines are commercially available and were obtained from the American Type Culture Collection (ATCC). The human cell lines were kept in HEPES-buffered RPMI-1640 medium supplemented with 10 [drawing 141] heat-inactivated FCS, 2 mM L-glutamine, 0.01 [drawing 142] sodium pyruvate, penicillin (100 units mL^−1), and, streptomycin ( [drawing 143] mL^-1). The MC38 cell line was maintained in DMEM medium additionally supplemented with 1 [drawing 144] non-essential amino acids. Cells were grown at [drawing 145] in a humidified atmosphere with 5 [drawing 146] [drawing 147] . Peritoneal exudate cells (PECs) were isolated from healthy C57BL/6 mice (males, n = 3, 3 months old, weight 22–25 g) by performing an ice-cold PBS peritoneal lavage. Mice were sacrificed by cervical dislocation. Cells were cultivated for 4 h when nonadherent population was removed by washing in PBS, and additionally cultivated overnight in HEPES-buffered RPMI-1640 medium supplemented with 5 [drawing 148] heat-inactivated FCS before treatment with experimental drugs. Animal handling and protocol for isolation of PECs were performed according to European Union rules, and the ARRIVE guidelines 2.0.
(§3) For the viability tests, MC38, HCT116, and HT29 cells were seeded in 96-well plates at a density of 2 [drawing 149] 103, 5 [drawing 150] 103, and 6 [drawing 151] 10^3 cells/well, respectively. To determine whether the drug affected the viability of healthy, non-malignant cells, MRC-5 and PECs were seeded in 96-well plates at a density of 8 [drawing 152] 103 and 2 [drawing 153] 10^5 cells/well, respectively. For the flow cytometric analyses, MC38 cells were seeded in 6-well plates at 5 [drawing 154] 10^4 cells/well. For morphological assessment of nuclei and the detection of autophagy, MC38 cells were seeded in 2-well chamber slides at 1.5 [drawing 155] 10^4 cells/well.
(§4) After 72 h, cell viability was determined using MTT and CV tests. First, the supernatant from the wells was discarded and the cells were incubated with an MTT solution (0.5 mg mL^−1). After half an hour, the purple formazan crystals formed were dissolved in DMSO. For CV staining of the cells, the cells were fixed with 4 [drawing 157] PFA for 10 min and then stained with a 0.02 [drawing 158] CV solution for 15 min, all at room temperature (RT). The cells were then washed with tap water, air-dried and the dye was dissolved in 33 [drawing 159] acetic acid. For both viability tests, the absorbance of the developed colors was measured using an automated microplate reader at 570 nm with a reference wavelength of 670 nm. The results were expressed as a percentage of the control values of the untreated cells, which were arbitrarily set at 100 [drawing 160] . IC50 values, defined as 50 [drawing 161] inhibitory concentration, were calculated using a four-parameter logistic function and presented as mean±SD. All biological experiments were performed in triplicates. To evaluate the nature of the detected autophagy, a combined treatment with compound 3 and the autophagy inhibitors chloroquine (Chlq) and 3-methyladenine (3-MA) was carried out. […] After 72 h, cell viability was determined by CV assay.

HCT116 cells = assay: MTT viability assay, HCT116; format: cell-based, human; conditions: 72 h, mean±SD; read-out: IC50 [μM] (n = 3) HCT116 MTT
Method: as §1, §2, §3, §4

MC38 cells [2] = assay: MTT viability assay, MC38; format: cell-based, murine; conditions: 72 h, mean±SD; read-out: IC50 [μM] (n = 3) MC38 MTT
Method: as §1, §2, §3, §4

[3] = tested on: peritoneal exudate cells (PECs); assay: Viability of peritoneal exudate cells; format: cell-based, mice; conditions: column head not given
Method: as §2, with “Animal handling and protocol for isolation of PECs were performed according to European Union rules, and the ARRIVE guidelines 2.0.” left out
After 72 h, cell viability was determined using MTT and CV tests. […] For both viability tests, the absorbance of the developed colors was measured using an automated microplate reader at 570 nm with a reference wavelength of 670 nm. The results were expressed as a percentage of the control values of the untreated cells, which were arbitrarily set at 100 [drawing 160] . IC50 values, defined as 50 [drawing 161] inhibitory concentration, were calculated using a four-parameter logistic function and presented as mean±SD. […] To evaluate the nature of the detected autophagy, a combined treatment with compound 3 and the autophagy inhibitors chloroquine (Chlq) and 3-methyladenine (3-MA) was carried out. […] After 72 h, cell viability was determined by CV assay.

MC38 cells [4] = assay: AnnV-FITC/PI double staining, flow cytometry; format: cell-based, murine; conditions: IC50 concentration, 72 h
Method: For all flow cytometric analyses, MC38 cells were seeded overnight and then treated with the IC50 concentration of compound 3 for 72 h. The cells were harvested, washed, and stained according to the manufacturer’s instructions for each method. To determine whether the compound induces apoptosis, cells were double stained with AnnV-FITC and PI (15 μg mL^–1) for 15 min at RT in the dark. To detect caspase activity, cells were stained with the FITC-conjugated caspase inhibitor ApoStat for 30 min at [drawing 162] . To detect cell proliferation, MC38 cells were stained with CFSE (1 μM) for 10 min at [drawing 163] prior to seeding and then treated as previously described. To detect intracellular production of Reactive oxygen/nitrogen Species (ROS/RNS), MC38 cells were prestained with DHR 123 (1 [drawing 164] M) for 20 min at [drawing 165] , then seeded and exposed to an IC50 concentration of compound 3. After 72 h incubation, all samples were washed, resuspended in PBS and fluorescence intensity was analyzed using a CytoFLEX [drawing 166] flow cytometer (Beckman Coulter, Pasadena, CA, USA), while the data obtained was evaluated using the [drawing 167] software program.

HT29 cells = assay: Crystal violet (CV) viability assay, HT29; format: cell-based, human; conditions: 72 h, mean±SD; read-out: IC50 [μM] (n = 3) HT29 CV
Method: as §1, §2, §3, §4

1-[2-(7,8-dicarba-nido-undecaborate)]- [drawing 126] H-indolium-2-amine [compound 3]
IC50 (MC38 cells [1]; mean±SD, read-out: IC50 [μM] (n = 3) MC38 CV): 9.5 ± 0.4 µM | cell viability on co-treatment with 3-methyladenine (3-MA) (MC38 cells [1]; IC50 concentration of 3 plus 3-MA 1 mM, CV assay): further viability decrease | cell viability on co-treatment with chloroquine (Chlq) (MC38 cells [1]; IC50 concentration of 3 plus Chlq 20 μM, CV assay): further viability decrease | IC50 (HCT116 cells): 6.9 ± 1.5 µM | IC50 (MC38 cells [2]): 7.9 ± 0.2 µM | Selectivity index (IC50 value of primary vs. cancer cells), PEC, second cancer cell line column ([3]; presumably HCT116): 2.17 | Selectivity index (IC50 value of primary vs. cancer cells), PEC, third cancer cell line column ([3]; presumably HT29): 1.42 | Selectivity index (IC50 value of primary vs. cancer cells), PEC, first cancer cell line column ([3]; presumably MC38): 2.63 | apoptosis (AnnV-FITC/PI), in words (MC38 cells [4]): moderate apoptotic cell accumulation | IC50 (HT29 cells): 17.6 ± 0.3 µM
